# Assay results taken from patent US11840686B2, “Modulation of prekallikrein (PKK) expression” (Ionis Pharmaceuticals, Inc., priority 2013, dated 2023).
# Strand notation (5' to 3'): a small letter for the sugar, then the base; units joined by * are phosphorothioate-linked, units joined directly phosphodiester-linked; [ ] holds rarer units or linkages, { } end groups; capitals alone tell only the bases. e = 2'-O-(2-methoxyethyl) (MOE); [5mC] = 5-methylcytosine; d = 2'-deoxy (DNA)
# How the values were obtained:
# human PKK mRNA [1] = assay: Antisense inhibition of human PKK mRNA in HepaRG cells, 3,000 nM (Example 1); assay type: cell-based; conditions: relative to untreated control cells
# Summary of the method: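 Values give percent PKK mRNA reduction relative to untreated controls, normalised to RIBOGREEN total RNA. mRNA was quantified by real-time PCR (RTS3454) about 24 h after electroporation. Each 20-mer MOE gapmer was delivered at 3,000 nM into 20,000 HepaRG cells per well.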
# human PKK mRNA [2] = assay: Dose-dependent antisense inhibition of human PKK in HepaRG cells, 0.12-10.00 uM (Example 4); assay type: cell-based; conditions: electroporation, ~16 h
# Protocol: Cells were plated at a density of 20,000 cells per well and transfected using electroporation with 0.12 μM, 0.37 μM, 1.11 μM, 3.33 μM, and 10.00 μM concentrations of antisense oligonucleotide. After a treatment period of approximately 16 hours, RNA was isolated from the cells and PKK mRNA levels were measured by quantitative real-time PCR. Human PKK primer probe set RTS3454 was used to measure mRNA levels. PKK mRNA levels were adjusted according to total RNA content, as measured by RIBOGREEN®. The antisense oligonucleotides were tested in a series of experiments that had similar culture conditions. Results are presented as percent inhibition of PKK, relative to untreated control cells.
# The half maximal inhibitory concentration (IC50) of each oligonucleotide is also presented.
# [3] = Table 2, PKK mRNA, HepaRG cells, 3,000 nM, electroporation, ~24 h
# [4] = Table 4, HepaRG cells, electroporation with 3,000 nM antisense oligonucleotide, approx. 24 hours, PKK mRNA by RT-PCR (RTS3454)
# [5] = Table 1, PKK mRNA, HepaRG cells, 3,000 nM, electroporation, ~24 h
# [6] = Table 3, HepaRG cells, electroporation with 3,000 nM antisense oligonucleotide, approx. 24 hours, PKK mRNA by RT-PCR (RTS3454)
substance,measurement,setting,value
531078 (eA*eG*e[5mC]*eA*eG*d[5mC]*dT*d[5mC]*dT*dG*dA*dG*dT*dG*d[5mC]*eA*e[5mC]*eT*eG*eT; antisense) [compound 531078],% inhibition,human PKK mRNA [1]; [3],77%
same,percent inhibition of PKK at 0.12 μM,"human PKK mRNA [2]; Table 32, 0.12 μM",10%
same,percent inhibition of PKK at 0.37 μM,"human PKK mRNA [2]; Table 32, 0.37 μM",27%
same,percent inhibition of PKK at 1.11 μM,"human PKK mRNA [2]; Table 32, 1.11 μM",54%
same,percent inhibition of PKK at 3.33 μM,"human PKK mRNA [2]; Table 32, 3.33 μM",69%
same,percent inhibition of PKK at 10.00 μM,"human PKK mRNA [2]; Table 32, 10.00 μM",92%
same,IC50,"human PKK mRNA [2]; Table 32, PKK mRNA",1100 nM
531234 (e[5mC]*eA*e[5mC]*eT*eG*dT*dA*d[5mC]*dT*dA*dG*dT*dT*dT*d[5mC]*e[5mC]*eT*eA*eT*eA; antisense) [compound 531234],% inhibition,human PKK mRNA [1]; [4],86%
same,percent inhibition of PKK at 0.12 μM,"human PKK mRNA [2]; Table 33, 0.12 μM",24%
same,percent inhibition of PKK at 0.37 μM,"human PKK mRNA [2]; Table 33, 0.37 μM",21%
same,percent inhibition of PKK at 1.11 μM,"human PKK mRNA [2]; Table 33, 1.11 μM",47%
same,percent inhibition of PKK at 3.33 μM,"human PKK mRNA [2]; Table 33, 3.33 μM",72%
same,percent inhibition of PKK at 10.00 μM,"human PKK mRNA [2]; Table 33, 10.00 μM",82%
same,IC50,"human PKK mRNA [2]; Table 33, PKK mRNA",1400 nM
530988 (eT*e[5mC]*e[5mC]*eA*eA*dA*dG*dT*d[5mC]*dA*dA*d[5mC]*dT*d[5mC]*d[5mC]*e[5mC]*eG*eG*eG*eT; antisense) [compound 530988],% inhibition,human PKK mRNA [1]; [5],76%
same,percent inhibition of PKK at 0.12 μM,"human PKK mRNA [2]; Table 32, 0.12 μM",0%
same,percent inhibition of PKK at 0.37 μM,"human PKK mRNA [2]; Table 32, 0.37 μM",25%
same,percent inhibition of PKK at 1.11 μM,"human PKK mRNA [2]; Table 32, 1.11 μM",54%
same,percent inhibition of PKK at 3.33 μM,"human PKK mRNA [2]; Table 32, 3.33 μM",86%
same,percent inhibition of PKK at 10.00 μM,"human PKK mRNA [2]; Table 32, 10.00 μM",78%
same,IC50,"human PKK mRNA [2]; Table 32, PKK mRNA",900 nM
486847 (antisense eA*eG*eG*e[5mC]*eA*dT*dA*dT*dT*dG*dG*dT*dT*dT*dT*eT*eG*eG*eA*eA) [compound 486847],% inhibition,human PKK mRNA [1]; [3],78%
same,percent inhibition of PKK at 0.12 μM,"human PKK mRNA [2]; Table 32, 0.12 μM",0%
same,percent inhibition of PKK at 0.37 μM,"human PKK mRNA [2]; Table 32, 0.37 μM",34%
same,percent inhibition of PKK at 1.11 μM,"human PKK mRNA [2]; Table 32, 1.11 μM",48%
same,percent inhibition of PKK at 3.33 μM,"human PKK mRNA [2]; Table 32, 3.33 μM",71%
same,percent inhibition of PKK at 10.00 μM,"human PKK mRNA [2]; Table 32, 10.00 μM",87%
same,IC50,"human PKK mRNA [2]; Table 32, PKK mRNA",1100 nM
531121 (antisense eT*eT*eG*eG*eT*d[5mC]*dT*dA*d[5mC]*dA*dG*dA*dT*dT*d[5mC]*eA*eA*eT*eG*e[5mC]) [compound 531121],% inhibition,human PKK mRNA [1]; [6],72%
same,percent inhibition of PKK at 0.12 μM,"human PKK mRNA [2]; Table 33, 0.12 μM",0%
same,percent inhibition of PKK at 0.37 μM,"human PKK mRNA [2]; Table 33, 0.37 μM",13%
same,percent inhibition of PKK at 1.11 μM,"human PKK mRNA [2]; Table 33, 1.11 μM",47%
same,percent inhibition of PKK at 3.33 μM,"human PKK mRNA [2]; Table 33, 3.33 μM",69%
same,percent inhibition of PKK at 10.00 μM,"human PKK mRNA [2]; Table 33, 10.00 μM",79%
same,IC50,"human PKK mRNA [2]; Table 33, PKK mRNA",1500 nM
531026 (antisense eA*eT*e[5mC]*eA*eT*dG*dA*dT*dT*d[5mC]*d[5mC]*d[5mC]*dT*dT*d[5mC]*eT*eG*eA*eG*eA) [compound 531026],% inhibition,human PKK mRNA [1]; [3],73%
same,percent inhibition of PKK at 0.12 μM,"human PKK mRNA [2]; Table 33, 0.12 μM",23%
same,percent inhibition of PKK at 0.37 μM,"human PKK mRNA [2]; Table 33, 0.37 μM",26%
same,percent inhibition of PKK at 1.11 μM,"human PKK mRNA [2]; Table 33, 1.11 μM",49%
same,percent inhibition of PKK at 3.33 μM,"human PKK mRNA [2]; Table 33, 3.33 μM",75%
same,percent inhibition of PKK at 10.00 μM,"human PKK mRNA [2]; Table 33, 10.00 μM",85%
same,IC50,"human PKK mRNA [2]; Table 33, PKK mRNA",1000 nM
531110 (antisense eG*e[5mC]*e[5mC]*eT*eG*dT*dT*dT*dG*dG*dT*dG*dG*dT*d[5mC]*eT*e[5mC]*eT*eT*e[5mC]) [compound 531110],% inhibition,human PKK mRNA [1]; [6],86%
same,percent inhibition of PKK at 0.12 μM,"human PKK mRNA [2]; Table 33, 0.12 μM",14%
same,percent inhibition of PKK at 0.37 μM,"human PKK mRNA [2]; Table 33, 0.37 μM",29%
same,percent inhibition of PKK at 1.11 μM,"human PKK mRNA [2]; Table 33, 1.11 μM",49%
same,percent inhibition of PKK at 3.33 μM,"human PKK mRNA [2]; Table 33, 3.33 μM",76%
same,percent inhibition of PKK at 10.00 μM,"human PKK mRNA [2]; Table 33, 10.00 μM",85%
same,IC50,"human PKK mRNA [2]; Table 33, PKK mRNA",1100 nM
531172 (antisense eT*eT*e[5mC]*eA*eA*dG*d[5mC]*d[5mC]*dT*dG*dG*dG*d[5mC]*dA*dG*e[5mC]*eA*e[5mC]*eA*eG) [compound 531172],% inhibition,human PKK mRNA [1]; [4],71%
same,percent inhibition of PKK at 0.12 μM,"human PKK mRNA [2]; Table 33, 0.12 μM",0%
same,percent inhibition of PKK at 0.37 μM,"human PKK mRNA [2]; Table 33, 0.37 μM",16%
same,percent inhibition of PKK at 1.11 μM,"human PKK mRNA [2]; Table 33, 1.11 μM",37%
same,percent inhibition of PKK at 3.33 μM,"human PKK mRNA [2]; Table 33, 3.33 μM",60%
same,percent inhibition of PKK at 10.00 μM,"human PKK mRNA [2]; Table 33, 10.00 μM",60%
same,IC50,"human PKK mRNA [2]; Table 33, PKK mRNA",2100 nM
530987 (eA*e[5mC]*eT*e[5mC]*e[5mC]*d[5mC]*dG*dG*dG*dT*dA*dA*dA*dT*dT*eT*eT*eA*eG*eA; antisense) [compound 530987],% inhibition,human PKK mRNA [1]; [5],0%
531089 (eA*eA*eA*eA*e[5mC]*dA*d[5mC]*d[5mC]*dA*dT*dT*dA*dA*dA*dT*e[5mC]*e[5mC]*eA*eT*eT; antisense) [compound 531089],% inhibition,human PKK mRNA [1]; [6],45%
531208 (eT*e[5mC]*e[5mC]*eA*eG*dA*dA*dT*dA*d[5mC]*dT*dG*d[5mC]*d[5mC]*d[5mC]*e[5mC]*eA*eT*e[5mC]*eT; antisense) [compound 531208],% inhibition,human PKK mRNA [1]; [4],23%
531218 (eG*eA*eT*eA*eA*dT*dT*d[5mC]*dT*dT*dT*dT*d[5mC]*dA*d[5mC]*eA*eG*eA*e[5mC]*eA; antisense) [compound 531218],% inhibition,human PKK mRNA [1]; [4],72%
531082 (eA*eT*eA*eT*eT*dG*dG*dT*dT*dT*dT*dT*dG*dG*dA*eA*eT*eT*e[5mC]*eT; antisense) [compound 531082],% inhibition,human PKK mRNA [1]; [3],31%
531156 (antisense eT*e[5mC]*eT*eG*eA*dA*dA*dA*dG*d[5mC]*d[5mC]*d[5mC]*dT*d[5mC]*d[5mC]*eG*eA*eG*e[5mC]*eT) [compound 531156],% inhibition,human PKK mRNA [1]; [6],0%
531101 (eA*eT*eG*eT*eA*dA*dG*dT*dT*dA*d[5mC]*dA*dA*dG*d[5mC]*e[5mC]*eA*e[5mC]*eT*eA; antisense) [compound 531101],% inhibition,human PKK mRNA [1]; [6],37%
530939 (antisense eA*eA*e[5mC]*eA*eA*dG*dG*dA*dA*dA*dT*dG*dA*dA*dA*eT*eA*eA*eG*eT) [compound 530939],% inhibition,human PKK mRNA [1]; [5],0%
530964 (antisense e[5mC]*eT*eT*e[5mC]*eA*dG*dT*dG*dA*dG*dA*dA*dT*d[5mC]*d[5mC]*eA*eG*eA*eT*eT) [compound 530964],% inhibition,human PKK mRNA [1]; [5],44%
531049 (antisense eT*eT*eA*eT*eT*dT*dT*dA*dT*dA*dA*dT*d[5mC]*dT*dT*eG*eA*eT*eA*eT) [compound 531049],% inhibition,human PKK mRNA [1]; [3],2%
530978 (antisense e[5mC]*eT*eA*eT*eA*dT*d[5mC]*d[5mC]*dA*dG*dA*dT*dA*dT*dG*eG*eT*eG*eT*eT) [compound 530978],% inhibition,human PKK mRNA [1]; [5],0%
531041 (antisense eA*eA*eA*eG*eG*dA*dA*dT*dA*dT*dT*dT*dA*d[5mC]*d[5mC]*eT*eT*eT*eT*eG) [compound 531041],% inhibition,human PKK mRNA [1]; [3],68%
531104 (eA*e[5mC]*eT*eT*eG*dA*d[5mC]*d[5mC]*dT*dT*dA*d[5mC]*dT*dG*dT*eT*eT*eT*eA*eG; antisense) [compound 531104],% inhibition,human PKK mRNA [1]; [6],20%
531017 (eA*e[5mC]*eT*eG*eG*dT*dG*dT*d[5mC]*d[5mC]*dT*dA*dT*dG*dA*eG*eT*eG*eA*e[5mC]; antisense) [compound 531017],% inhibition,human PKK mRNA [1]; [3],31%
531152 (antisense eG*eT*eT*eA*eT*dG*dG*dA*dT*dA*dT*dA*dG*dA*d[5mC]*eT*eT*eT*eA*eA) [compound 531152],% inhibition,human PKK mRNA [1]; [6],0%
531126 (antisense eT*eT*eT*eT*eG*dA*dA*dT*d[5mC]*dT*dT*d[5mC]*dA*dT*dT*e[5mC]*eA*eA*eA*eG) [compound 531126],% inhibition,human PKK mRNA [1]; [6],0%
531046 (antisense eG*eA*eT*eA*eT*d[5mC]*dT*dT*dT*dT*d[5mC]*dT*dG*dG*d[5mC]*eA*eT*eT*e[5mC]*eT) [compound 531046],% inhibition,human PKK mRNA [1]; [3],54%
531148 (antisense eT*eA*e[5mC]*e[5mC]*e[5mC]*dA*dA*dA*dT*dT*dA*dT*dA*d[5mC]*d[5mC]*eT*eG*eG*eA*eA) [compound 531148],% inhibition,human PKK mRNA [1]; [6],8%
531161 (antisense e[5mC]*eA*eG*eA*e[5mC]*dA*d[5mC]*d[5mC]*dT*dT*d[5mC]*dT*dT*d[5mC]*dA*e[5mC]*eA*eA*eG*eG) [compound 531161],% inhibition,human PKK mRNA [1]; [4],40%
